Assay results taken from patent US12398154B2, “Azaquinazoline pan-KRas inhibitors” (Mirati Therapeutics, Inc., priority 2020, dated 2025).

Legend:
KRas G12V = KRas G12V (Homo sapiens, UniProt P01116, G12V); test: biochemical;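 note: KRas binding measured by TR-FRET displacement at room temperature, IC50 fitted from percent of control values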
Procedure: (§2) The ability of a compound to bind to KRas was measured using a TR-FRET displacement assay. […] After a 60-minute incubation at room temperature, the reaction was measured using a BMG LABTECH CLARIO star Plus via TR-FRET. […] The POC values were fit to a 4-parameter IC50 equation and the IC50 value reported.

[1] = test system: phospho-ERK in NCI-H358 (G12C) cells; test: Inhibition of KRas-mediated phosphorylation of ERK (in-cell western); type: cell-based; conditions: Homo sapiens, 3 hours compound, phospho-ERK normalized to GAPDH
Procedure, shortened: (§1)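 Cells treated 3 h with compounds (0.5% DMSO), fixed in formaldehyde and methanol-permeabilized. In-cell western for phospho-ERK (Thr202/Tyr204) normalized to GAPDH, as % of DMSO control; IC50 by 4-parameter fit.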

[2] = test system: phospho-ERK in AsPC-1 (G12D) cells; test: as above; type: cell-based; conditions: Homo sapiens, ASPC1, 3 h, 3 hours compound, phospho-ERK normalized to GAPDH
Procedure, shortened: as §1

[3] = test system: phospho-ERK in A549 (G12S) cells; test: as above; type: cell-based; conditions: Homo sapiens, 3 hours compound, phospho-ERK normalized to GAPDH
Procedure, shortened: as §1

[4] = test system: phospho-ERK in MKN1 (WTdep) cells; test: as above; type: cell-based; conditions: Homo sapiens, MKN-1, 3 hours compound, phospho-ERK normalized to GAPDH
Procedure, shortened: as §1

[5] = test system: phospho-ERK in NCI-H727 (G12V) cells; test: as above; type: cell-based; conditions: Homo sapiens, NCI-H727, 3 h, 3 hours compound, phospho-ERK normalized to GAPDH
Procedure, shortened: as §1

[6] = test system: phospho-ERK in HCT116 (G13D) cells; test: as above; type: cell-based; conditions: Homo sapiens, HCT-116, 3 hours compound, phospho-ERK normalized to GAPDH
Procedure, shortened: as §1

[7] = test system: phospho-ERK in NCI-H460 (Q61H) cells; test: as above; type: cell-based; conditions: Homo sapiens, NCI-H460, 3 h, 3 hours compound, phospho-ERK normalized to GAPDH
Procedure, shortened: as §1

[8] = test system: phospho-ERK in PSN-1 (G12R) cells; test: as above; type: cell-based; conditions: Homo sapiens, PSN1, 3 hours compound, phospho-ERK normalized to GAPDH
Procedure, shortened: as §1

KRas G12D = KRas G12D (Homo sapiens, UniProt P01116, G12D); test: biochemical;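 note: TR-FRET displacement binding assay on KRas, read after a one-hour incubation at room temperature, IC50 fitted from percent-of-control values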
Procedure: as §2

KRas G12R = KRas G12R (Homo sapiens, UniProt P01116, G12R); test: biochemical;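 note: TR-FRET displacement assay of compound binding to KRas, read after one hour at room temperature, potency from a four-parameter fit of percent-of-control values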
KRas G12R, sequence (P01116 1-169 isoform P01116-2 G12R): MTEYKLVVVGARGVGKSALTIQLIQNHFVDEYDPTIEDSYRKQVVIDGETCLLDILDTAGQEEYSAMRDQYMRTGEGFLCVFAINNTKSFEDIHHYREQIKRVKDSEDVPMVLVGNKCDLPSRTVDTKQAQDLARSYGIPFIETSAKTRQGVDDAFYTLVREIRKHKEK
Procedure: as §2

KRas G12V, sequence (P01116 1-169 isoform P01116-2 G12V): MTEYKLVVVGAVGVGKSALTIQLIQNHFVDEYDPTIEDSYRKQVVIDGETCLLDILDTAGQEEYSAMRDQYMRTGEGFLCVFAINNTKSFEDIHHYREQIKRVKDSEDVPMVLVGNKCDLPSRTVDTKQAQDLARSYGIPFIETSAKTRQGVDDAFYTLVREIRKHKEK
KRas G12D, sequence (P01116 1-169 isoform P01116-2 G12D): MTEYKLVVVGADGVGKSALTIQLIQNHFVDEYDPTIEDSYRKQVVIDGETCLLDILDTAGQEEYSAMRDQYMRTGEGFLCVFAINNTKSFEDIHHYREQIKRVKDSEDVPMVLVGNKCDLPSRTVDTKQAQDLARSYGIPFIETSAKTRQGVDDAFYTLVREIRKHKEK

Row | Structure (SMILES) | IC50 (KRas G12V) [nM] | IC50 (KRas G12D) [nM] | IC50 (KRas G12R) [nM] | IC50 [1] [nM] | IC50 [2] [nM] | IC50 [3] [nM] | IC50 [4] [nM] | IC50 [5] [nM] | IC50 [6] [nM] | IC50 [7] [nM] | IC50 [8] [nM]
1 | Cc1n[nH]c(C2CCCN(c3nc(OCC45CCCN4CCC5)nc4c(F)c(-c5cc(O)cc6ccc(F)c(F)c56)ncc34)C2)n1 (stereo not drawn) [Example 138, 5,6-difluoro-4-(8-fluoro-2-((hexahydro-1H-pyrrolizin-7a-yl)methoxy)-4-(3-(3-methyl-1H-1,2,4-triazol-5-yl)piperidin-1-yl)pyrido[4,3-d]pyrimidin-7-yl)naphthalen-2-ol] | 5 | 12 | 5 | ≥ 10000 | ≥ 10000 | ≥ 10000 | ≥ 10000 | ≥ 10000 | ≥ 10000 | ≥ 10000 | ≥ 10000
2 | CCc1c(F)ccc2cc(O)cc(-c3ncc4c(N5CCCC(c6ncn[nH]6)C5)nc(OC[C@@]56CCCN5C[C@H](F)C6)nc4c3F)c12 (stereo partly drawn) [Example 145, 4-(4-(3-(1H-1,2,4-triazol-5-yl)piperidin-1-yl)-8-fluoro-2-(((2R,7aS)-2-fluorohexahydro-1H-pyrrolizin-7a-yl)methoxy)pyrido[4,3-d]pyrimidin-7-yl)-5-ethyl-6-fluoronaphthalen-2-ol] | 6 | 9 | 3 | 379 | ≥ 10000 | ≥ 10000 | 258 | ≥ 10000 | ≥ 10000 | 847 | ≥ 10000
3 | CCc1c(F)ccc2cc(O)cc(-c3ncc4c(N5CCCC(C(N)=O)C5)nc(OC[C@@]56CCCN5C[C@H](F)C6)nc4c3F)c12 (stereo partly drawn) [Example 147] | 3 | 4 | 3 | 79 | ≥ 10000 | 1950 | 65 | ≥ 10000 | ≥ 10000 | 383 | ≥ 10000
4 | CCc1c(F)ccc2cc(O)cc(-c3ncc4c(Nc5ccon5)nc(OC[C@@]56CCCN5C[C@H](F)C6)nc4c3F)c12 [Example 152, 5-ethyl-6-fluoro-4-(8-fluoro-2-(((2R,7aS)-2-fluorohexahydro-1H-pyrrolizin-7a-yl)methoxy)-4-(isoxazol-3-ylamino)pyrido[4,3-d]pyrimidin-7-yl)naphthalen-2-ol] | 8 | 175 | 10 | ≥ 10000 | ≥ 10000 | ≥ 10000 | 6290 | ≥ 10000 | ≥ 10000 | ≥ 10000 | ≥ 10000
5 | CCc1c(F)ccc2cc(O)cc(-c3ncc4c(N5CCN(c6ncccc6C#N)CC5)nc(OC[C@@]56CCCN5C[C@H](F)C6)nc4c3F)c12 [Example 155] | 4 | 118 | 3 | 329 | 1720 | ≥ 10000 | 196 | 2670 | ≥ 10000 | 399 | ≥ 10000
6 | CCc1c(F)ccc2cc(O)cc(-c3ncc4c(NCc5cc[nH]n5)nc(OC[C@@]56CCCN5C[C@H](F)C6)nc4c3F)c12 [Example 159, 4-(4-(((1H-pyrazol-3-yl)methyl)amino)-8-fluoro-2-(((2R,7aS)-2-fluorohexahydro-1H-pyrrolizin-7a-yl)methoxy)pyrido[4,3-d]pyrimidin-7-yl)-5-ethyl-6-fluoronaphthalen-2-ol] | 3 | 39 | 5 | 139 | ≥ 10000 | 4070 | 133 | 2000 | 2110 | 1510 | ≥ 10000
7 | CCc1c(F)ccc2cc(O)cc(-c3ncc4c(NCc5cn[nH]c5)nc(OC[C@@]56CCCN5C[C@H](F)C6)nc4c3F)c12 [Example 160, 4-(4-(((1H-pyrazol-4-yl)methyl)amino)-8-fluoro-2-(((2R,7aS)-2-fluorohexahydro-1H-pyrrolizin-7a-yl)methoxy)pyrido[4,3-d]pyrimidin-7-yl)-5-ethyl-6-fluoronaphthalen-2-ol] | ≤ 2 | 15 | ≤ 2 | 149 | 5520 | 974 | 146 | 727 | 1600 | 471 | ≥ 10000

Now from value to compound, other results behind:

Row | IC50 (KRas G12V) [nM] | IC50 (KRas G12D) [nM] | IC50 (KRas G12R) [nM] | Structure (SMILES) | IC50 [1] [nM] | IC50 [2] [nM] | IC50 [3] [nM] | IC50 [4] [nM] | IC50 [5] [nM] | IC50 [6] [nM] | IC50 [7] [nM] | IC50 [8] [nM]
8 | ≤ 2 | 8 | ≤ 2 | CCc1c(F)ccc2cc(O)cc(-c3ncc4c(NCc5ccc6[nH]cnc6c5)nc(OC[C@@]56CCCN5C[C@H](F)C6)nc4c3F)c12 [Example 139, 4-(4-(((1H-benzo[d]imidazol-5-yl)methyl)amino)-8-fluoro-2-(((2R,7aS)-2-fluorohexahydro-1H-pyrrolizin-7a-yl)methoxy)pyrido[4,3-d]pyrimidin-7-yl)-5-ethyl-6-fluoronaphthalen-2-ol] | 115 | ≥ 10000 | ≥ 10000 | 307 | ≥ 10000 | ≥ 10000 | 7510 | ≥ 10000
9 | ≤ 2 | 14 | ≤ 2 | CCc1c(F)ccc2cc(O)cc(-c3ncc4c(NCc5ncc6cc[nH]c6n5)nc(OC[C@@]56CCCN5C[C@H](F)C6)nc4c3F)c12 [Example 142, 4-(4-(((7H-pyrrolo[2,3-d]pyrimidin-2-yl)methyl)amino)-8-fluoro-2-(((2R,7aS)-2-fluorohexahydro-1H-pyrrolizin-7a-yl)methoxy)pyrido[4,3-d]pyrimidin-7-yl)-5-ethyl-6-fluoronaphthalen-2-ol] | 78 | 2870 | ≥ 10000 | 45 | ≥ 10000 | 6960 | 212 | ≥ 10000
10 | ≤ 2 | 4 | ≤ 2 | CCc1c(F)ccc2cc(O)cc(-c3ncc4c(NCc5ccc(=O)[nH]c5)nc(OC[C@@]56CCCN5C[C@H](F)C6)nc4c3F)c12 [Example 143] | 527 | ≥ 10000 | ≥ 10000 | 300 | ≥ 10000 | ≥ 10000 | ≥ 10000 | ≥ 10000
11 | ≤ 2 | 12 | ≤ 2 | CCc1c(F)ccc2cc(O)cc(-c3ncc4c(NCCc5c[nH]c6ncccc56)nc(OC[C@@]56CCCN5C[C@H](F)C6)nc4c3F)c12 [Example 157, 4-(4-((2-(1H-pyrrolo[2,3-b]pyridin-3-yl)ethyl)amino)-8-fluoro-2-(((2R,7aS)-2-fluorohexahydro-1H-pyrrolizin-7a-yl)methoxy)pyrido[4,3-d]pyrimidin-7-yl)-5-ethyl-6-fluoronaphthalen-2-ol] | 31 | 751 | 448 | 31 | 4720 | 893 | 585 | ≥ 10000
12 | 3 | 28 | 3 | CCc1c(F)ccc2cc(O)cc(-c3ncc4c(NCc5c[nH]cn5)nc(OC[C@@]56CCCN5C[C@H](F)C6)nc4c3F)c12 [Example 164, 4-(4-(((1H-imidazol-4-yl)methyl)amino)-8-fluoro-2-(((2R,7aS)-2-fluorohexahydro-1H-pyrrolizin-7a-yl)methoxy)pyrido[4,3-d]pyrimidin-7-yl)-5-ethyl-6-fluoronaphthalen-2-ol] | 602 | ≥ 10000 | ≥ 10000 | 207 | ≥ 10000 | ≥ 10000 | 6820 | ≥ 10000
